Test results as given in PubChem BioAssay AID1919000 (Molecular Pharmacology Branch, DTP, NCI, 2023).

Test system: 653999-131-R-J2-PDC complex spheroids, growth % test/control
Test: Anticancer human tumor 653999-131-R-J2-PDC patient-derived lung adenocarcinoma cell line growth inhibition [AhR]
Details: for IC50: curve of first compound; for viability, T/C: stronger effect = lower value
Summary of the method: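 Complex tumor spheroids co-cultured with HUVEC and human MSC stroma; AhR antagonists tested in combination with standard-of-care and investigational agents. Top concentration at or near clinical Cmax (else 10 microM), half-log dilutions; growth expressed as percent test/control.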

[1] = second compound 0.1 µM, first compound 0.0316 µM
[2] = second compound 0.1 µM, first compound 0.1 µM
[3] = second compound 0.1 µM, first compound 0.316 µM
[4] = second compound 0.1 µM, first compound 1 µM
[5] = second compound 0.1 µM, first compound 3.16 µM
[6] = second compound 0.1 µM, first compound 10 µM
[7] = second compound 0.316 µM, first compound 0.0316 µM
[8] = second compound 0.316 µM, first compound 0.1 µM
[9] = second compound 0.316 µM, first compound 0.316 µM
[10] = second compound 0.316 µM, first compound 1 µM
[11] = second compound 0.316 µM, first compound 3.16 µM
[12] = second compound 0.316 µM, first compound 10 µM
[13] = second compound 1 µM, first compound 0.0316 µM
[14] = second compound 1 µM, first compound 0.1 µM
[15] = second compound 1 µM, first compound 0.316 µM
[16] = second compound 1 µM, first compound 1 µM
[17] = second compound 1 µM, first compound 3.16 µM
[18] = second compound 1 µM, first compound 10 µM
[19] = second compound 3.16 µM, first compound 0.0316 µM
[20] = second compound 3.16 µM, first compound 0.1 µM
[21] = second compound 3.16 µM, first compound 0.316 µM
[22] = second compound 3.16 µM, first compound 1 µM
[23] = second compound 3.16 µM, first compound 3.16 µM
[24] = second compound 3.16 µM, first compound 10 µM
[25] = second compound 10 µM, first compound 0.0316 µM
[26] = second compound 10 µM, first compound 0.1 µM
[27] = second compound 10 µM, first compound 0.316 µM
[28] = second compound 10 µM, first compound 1 µM
[29] = second compound 10 µM, first compound 3.16 µM
[30] = second compound 10 µM, first compound 10 µM
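Note: spheroids exposed to agents for seven days.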
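Throughout, for viability, T/C: 100% = DMSO vehicle control viability.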

For NS(=O)(=O)OCC1CC(n2ccc3c(NC4CCc5ccccc54)ncnc32)CC1O (stereo not given) + Cc1cncc(-c2nc(NCCc3c[nH]c4ccccc34)c3ncn(C(C)C)c3n2)c1, the IC50 (second compound 0.1 µM) was 6200 nM, the IC50 (second compound 0.316 µM) was 1780 nM and the IC50 (second compound 1 µM) was over 10000 nM. For the same molecule, the IC50 (second compound 3.16 µM) was 948 nM, the IC50 (second compound 10 µM) was under 31.6 nM and the viability, T/C [1] was 108%. It also gave a viability, T/C [2] of 106%, a viability, T/C [3] of 101% and a viability, T/C [4] of 71.4%. The viability, T/C [5] was 50.4%, the viability, T/C [6] was 49.8% and the viability, T/C [7] was 113%. For the same molecule, the viability, T/C [8] was 112%, the viability, T/C [9] was 106% and the viability, T/C [10] was 52.2%. It also gave a viability, T/C [11] of 48.4%, a viability, T/C [12] of 47.2% and a viability, T/C [13] of 112%. It also gave a viability, T/C [14] of 120%, a viability, T/C [15] of 108% and a viability, T/C [16] of 49.3%. The viability, T/C [17] was 50.5%, the viability, T/C [18] was 51.2% and the viability, T/C [19] was 117%. The viability, T/C [20] was 104%, the viability, T/C [21] was 90.5% and the viability, T/C [22] was 46.8%. It also gave a viability, T/C [23] of 40.5%, a viability, T/C [24] of 43.3% and a viability, T/C [25] of 44.4%. It also gave a viability, T/C [26] of 38%, a viability, T/C [27] of 39.4% and a viability, T/C [28] of 22.3%. It also gave a viability, T/C [29] of 18.5% and a viability, T/C [30] of 19.4%.
Work on CCN(c1cc(-c2ccc(CN3CCOCC3)cc2)cc(C(=O)NCc2c(C)cc(C)[nH]c2=O)c1C)C1CCOCC1 + CC(CO)NC(=O)c1cc(-c2ccc(Cl)cc2)nn(-c2cnn(C)c2)c1=O yielded an IC50 (second compound 0.1 µM) of over 3000 nM, an IC50 (second compound 0.316 µM) of over 3000 nM and an IC50 (second compound 1 µM) of over 3000 nM. It also gave an IC50 (second compound 3.16 µM) of over 3000 nM, an IC50 (second compound 10 µM) of over 3000 nM and a viability, T/C (second compound 0.1 µM, first compound 0.00949 µM) of 112%. It also gave a viability, T/C (second compound 0.1 µM, first compound 0.03 µM) of 97.6%, a viability, T/C (second compound 0.1 µM, first compound 0.0949 µM) of 120% and a viability, T/C (second compound 0.1 µM, first compound 0.3 µM) of 95.9%. The viability, T/C (second compound 0.1 µM, first compound 0.949 µM) was 93.9%, the viability, T/C (second compound 0.1 µM, first compound 3 µM) was 90% and the viability, T/C (second compound 0.316 µM, first compound 0.00949 µM) was 119%. The viability, T/C (second compound 0.316 µM, first compound 0.03 µM) was 107%, the viability, T/C (second compound 0.316 µM, first compound 0.0949 µM) was 101% and the viability, T/C (second compound 0.316 µM, first compound 0.3 µM) was 94.6%. For the same molecule, the viability, T/C (second compound 0.316 µM, first compound 0.949 µM) was 101%, the viability, T/C (second compound 0.316 µM, first compound 3 µM) was 94.1% and the viability, T/C (second compound 1 µM, first compound 0.00949 µM) was 115%. It also gave a viability, T/C (second compound 1 µM, first compound 0.03 µM) of 134%, a viability, T/C (second compound 1 µM, first compound 0.0949 µM) of 115% and a viability, T/C (second compound 1 µM, first compound 0.3 µM) of 114%. It also gave a viability, T/C (second compound 1 µM, first compound 0.949 µM) of 105%, a viability, T/C (second compound 1 µM, first compound 3 µM) of 102% and a viability, T/C (second compound 3.16 µM, first compound 0.00949 µM) of 112%. For the same molecule, the viability, T/C (second compound 3.16 µM, first compound 0.03 µM) was 113%, the viability, T/C (second compound 3.16 µM, first compound 0.0949 µM) was 119% and the viability, T/C (second compound 3.16 µM, first compound 0.3 µM) was 114%. For the same molecule, the viability, T/C (second compound 3.16 µM, first compound 0.949 µM) was 106%, the viability, T/C (second compound 3.16 µM, first compound 3 µM) was 99.6% and the viability, T/C (second compound 10 µM, first compound 0.00949 µM) was 111%. It also gave a viability, T/C (second compound 10 µM, first compound 0.03 µM) of 117%, a viability, T/C (second compound 10 µM, first compound 0.0949 µM) of 130% and a viability, T/C (second compound 10 µM, first compound 0.3 µM) of 114%. For the same molecule, the viability, T/C (second compound 10 µM, first compound 0.949 µM) was 105% and the viability, T/C (second compound 10 µM, first compound 3 µM) was 96.1%.
With COc1cc(C2c3cc4c(cc3C(OC3OC5COC(C)OC5C(O)C3O)C3COC(=O)C23)OCO4)cc(OC)c1O (stereo not given) + Cc1cncc(-c2nc(NCCc3c[nH]c4ccccc34)c3ncn(C(C)C)c3n2)c1 the IC50 (second compound 0.1 µM) was 841 nM, the IC50 (second compound 0.316 µM) was 732 nM and the IC50 (second compound 1 µM) was 1190 nM. For the same molecule, the IC50 (second compound 3.16 µM) was 1640 nM, the IC50 (second compound 10 µM) was 44 nM and the viability, T/C [1] was 92.3%. The viability, T/C [2] was 94.7%, the viability, T/C [3] was 58.6% and the viability, T/C [4] was 51.5%. It also gave a viability, T/C [5] of 37.9%, a viability, T/C [6] of 28.6% and a viability, T/C [7] of 91%. It also gave a viability, T/C [8] of 79.7%, a viability, T/C [9] of 58.1% and a viability, T/C [10] of 45.6%. The viability, T/C [11] was 39%, the viability, T/C [12] was 28.4% and the viability, T/C [13] was 93.1%. It also gave a viability, T/C [14] of 84.3%, a viability, T/C [15] of 71% and a viability, T/C [16] of 49.3%. For the same molecule, the viability, T/C [17] was 40.9%, the viability, T/C [18] was 29% and the viability, T/C [19] was 96.4%. The viability, T/C [20] was 85.6%, the viability, T/C [21] was 69% and the viability, T/C [22] was 54.5%. It also gave a viability, T/C [23] of 44.4%, a viability, T/C [24] of 31.2% and a viability, T/C [25] of 50.2%. It also gave a viability, T/C [26] of 47.1%, a viability, T/C [27] of 46.2% and a viability, T/C [28] of 36.3%. The viability, T/C [29] was 31.6% and the viability, T/C [30] was 33.8%.
